Experimental data as given in the NIST ThermoML archive (doi:10.1021/je300526w).
± gives the expanded uncertainty stated by the source.

Test: xn = mol fraction of the nth substance listed
Details: Liquid, Vibrating tube method

CCCCCCCCCCCCCCCCCC [octadecane] + CCCCCCCCCC
mass density (295.1 K, 1000 kPa, x2 = 0.5): 759.7 ± 0.4 kg/m3
mass density (295.1 K, 2000 kPa, x2 = 0.5): 760.4 ± 0.4 kg/m3
mass density (295.1 K, 3000 kPa, x2 = 0.5): 761.1 ± 0.4 kg/m3
mass density (295.1 K, 4000 kPa, x2 = 0.5): 761.7 ± 0.4 kg/m3
mass density (295.1 K, 5000 kPa, x2 = 0.5): 762.4 ± 0.4 kg/m3
mass density (295.1 K, 6000 kPa, x2 = 0.5): 763.1 ± 0.4 kg/m3
mass density (295.1 K, 7000 kPa, x2 = 0.5): 763.7 ± 0.4 kg/m3
mass density (295.1 K, 8000 kPa, x2 = 0.5): 764.4 ± 0.4 kg/m3
mass density (295.1 K, 9000 kPa, x2 = 0.5): 765.1 ± 0.4 kg/m3
mass density (295.1 K, 10000 kPa, x2 = 0.5): 765.8 ± 0.4 kg/m3
mass density (295.2 K, 1000 kPa, x2 = 0.75): 745.7 ± 0.4 kg/m3
mass density (295.2 K, 2000 kPa, x2 = 0.75): 746.4 ± 0.4 kg/m3
mass density (295.2 K, 3000 kPa, x2 = 0.75): 747.1 ± 0.4 kg/m3
mass density (295.2 K, 4000 kPa, x2 = 0.75): 747.9 ± 0.4 kg/m3
mass density (295.2 K, 5000 kPa, x2 = 0.75): 748.6 ± 0.4 kg/m3
mass density (295.2 K, 6000 kPa, x2 = 0.75): 749.3 ± 0.4 kg/m3
mass density (295.2 K, 7000 kPa, x2 = 0.75): 750 ± 0.4 kg/m3
mass density (295.2 K, 8000 kPa, x2 = 0.75): 750.7 ± 0.4 kg/m3
mass density (295.2 K, 9000 kPa, x2 = 0.75): 751.4 ± 0.4 kg/m3
mass density (295.2 K, 10000 kPa, x2 = 0.75): 752.1 ± 0.4 kg/m3
mass density (295.8 K, 1000 kPa, x2 = 0.9): 733.9 ± 0.4 kg/m3
mass density (295.8 K, 2000 kPa, x2 = 0.9): 734.7 ± 0.4 kg/m3
mass density (295.8 K, 3000 kPa, x2 = 0.9): 735.4 ± 0.4 kg/m3
mass density (295.8 K, 4000 kPa, x2 = 0.9): 736.2 ± 0.4 kg/m3
mass density (295.8 K, 5000 kPa, x2 = 0.9): 736.9 ± 0.4 kg/m3
mass density (295.8 K, 6000 kPa, x2 = 0.9): 737.6 ± 0.4 kg/m3
mass density (295.8 K, 7000 kPa, x2 = 0.9): 738.4 ± 0.4 kg/m3
mass density (295.8 K, 8000 kPa, x2 = 0.9): 739.1 ± 0.4 kg/m3
mass density (295.8 K, 9000 kPa, x2 = 0.9): 739.9 ± 0.4 kg/m3
mass density (295.8 K, 10000 kPa, x2 = 0.9): 740.6 ± 0.4 kg/m3
